These results are taken from PMC4227718 (Journal of the American Chemical Society, 2014).

For one assay, the target named is Pin1 (Homo sapiens, UniProt Q13526, S16A/Y23A). Put plainly: Fluorescence anisotropy binding to Pin1. In general terms: Polarisation of emitted light reports the rotation of a fluorescent probe.
The subject of the next assay is HeLa cells. As to the kind of experiment: MTT cell proliferation assay. It is filed as cell-based. The conditions noted are these: 0-20 μM, 72 h. In general terms: Tetrazolium dyes change colour on reduction, which living cells bring about.

“bicyclo[Tm(D-Ala-Sar-D-Thr-D-Ala-Nal-Arg-Ala-D-Ala)-Dap-(Phe-Nal-Arg-Arg-Arg-Arg-Dap)]-Lys-NH2 [peptide 9]”: at Pin1, the Pin1 inhibitory activity result is listed as “abolished the Pin1 inhibitory activity”. In addition, in the assay on HeLa cells, the “Effect on HeLa cell growth” value was “no effect”.
